# Data reported in patent EP2563337B1, “CARRIER AND TARGETING SYSTEM COMPRISING A SIOSOMAL COMPOSITION FOR INTRACELLULAR DELIVERY AND TARGETING OF ACTIVE SUBSTANCE” (Salama, Zoser B., priority 2010, dated 2011).
# “And” between values parts separate entries of the source, which are not always exact repeats. Equal values may be shown once.
# Key:
# [1] = for Particle size range of the Doxorubicin-siosomes (nm): Example 18: doxorubicin-siosomes prepared from the single organosilicon compound; for Particle size (nm): Example 19: doxorubicin-siosomes from organosilicon compounds and combinations
# Procedure: The siosome size was measured using Zetasizer (Malvern Instruments).
# The obtained test samples were analyzed using a Zetasizer from Malvern to measure the particle size of the Siosomes® and its concentration (via determination of the count rate which related to the sample quality and concentration).
# The Zetasizer from Malvern performs particle size measurements using a process called Dynamic Light Scattering (DLS). Dynamic Light Scattering (also known as PCS - Photon Correlation Spectroscopy) measures Brownian motion and relates this to the size of the particles. It does this by illuminating the particles with a laser and analyzing the intensity fluctuations in the scattered light. If the particles or molecules are illuminated with a laser, the intensity of the scattered light fluctuates at a rate that is dependent upon the size of the particles as smaller particles are "kicked" further by the solvent molecules and move more rapidly.
# [2] = Encapsulation efficiency of doxorubicin hydrochloride in siosomes (absorbance at 480 nm after gel filtration); assay type: physicochemical
# Procedure: A doxorubicin hydrochloride solution at 10 mg/ml was prepared using physiological saline. The predetermined amount of the doxorubicin hydrochloride solution was added to the sugar siosome dispersion using the cationic organosilicon compounds such as 1.2-(Dimethyldecylsilyl)ethyl-beta-D-glucosamin, 2.2-(Dimethyloctylsilylcholin)ethyl-beta-D-glucopyranosid and/or 1.2-(DiN,N,N,trimethylammoniadecylsilyl)ethyl-beta-D-glucopyranosid and the mixture was adjusted to pH 7.4, using 1 N NaOH or saturated sodium hydrogencarbonate and the mixture was stirred at 65°C for 30 minutes the thereby introduce the doxorubicin hydrochloride in the siosomes.
# After doxorubicin hydrochloride introduction, the sample was cooled in an ice bath. Gel filtration was conducted using a column (Sepharose 4, fast flow, having a diameter of 2.8 cm and a length of 20 cm, fully substituted with 10% sucrose (pH 6.5)) to remove the doxorubicin hydrochloride that had not been introduced in the siosomes.
# The amount of the sugar silanes in the siosomes, the amounts of the doxorubicin hydrochloride encapsulated in the siosomes and the siosomes themselves were measured by the same methods as in the above examples.
# Concentration of the doxorubicin hydrochloride encapsulated in the siosomes was determined by measuring absorbance at 480 nm, using a spectrophotometer for the solution prepared by adding 2 ml of methanol to 40 µl of the doxorubicin siosomes. An alternative HPLC-based assay has also been used for the quantification of the doxorubicin in the formulations.
# The above procedures described in example 16 were employed to prepare the carrier siosomes systems in this example. According to these methods of preparation, a dispersion of each of the following organo-silicon compounds were prepared, using doxorubicin hydrochloride solutions at […]. • Sil 8.1: Decyldimethylsilyl-α-D-galactopyranosid • Sil 9.1: Dodecyldimethylsilyl-α-D-glucopyranosid • SIL 15: 1-O-Dioctadecylsilyl-di(2,3,4,6-O-tetracetyl-β-D-galactopyranosid) • SIL 14: 1-o-Dioctadecylsilyl-di(2,3,4,6-O-tetracetyl-β-D-glucopyranosid)1-o- • SIL17: Didodecylsilyl-di(2,3,4,6-O-tetracetyl-β-D-glucopyranosid) • SIL18: Tridodecylsilyl-(2,3,4,6-O-tetracetyl-β-D-glucopyranosid) • Sil22.1 Di(octadecanoyloxy)dimethylsilan
# The following parameters have been determined: 1 Physico chemical properties 2 Encapsulated efficiency of doxorubicin 3 Stability 4 Particle size distribution prior to lyophilisation and after dehydration using sterile water for injection 5 Release profile
# [3] = Intracellular distribution of Cis-Oxoplatin within the rat liver, total platinum in liver homogenate and fractions; assay type: in vivo; details: rats, 1.5 mg Cis-Oxoplatin encapsulated in Siosomes of the compound, intravenous, 3 hours after administration
# From the text: • 1. The objective of the study to assess the intracellular distribution of Cis-Oxoplatin (as model drug molecule) in rat liver using Cis-Oxoplatin encapsulated in Siosomes®, using the following organosilicon compounds: • a. Sugar Organosilicon Compound: Didodecylsilyi-di(2,3,4,6-O-tetraacetyl-β-D-glucopyranosid (SIL 17) • b. Cationic Sugar Organosilicon Compound: 2.2-(Dimethyloctylsilylcholin)ethyl- β-D-glucopyranosid (SIL62) • c. Anionic Sugar Organosilicon Compound: 2-(Dimethyidecylsilyl)ethyl-β-D-glucopyranosidsulfate (SIL56) • d. Zwitterionic Sugar Organosilicon Compound: 2-(N,N,N, trimethylammonianonaylsilyl)ethyl- P-D-glucopyranosidsulfate (SIL66) • e. PEGylated Organosilicon Compound: 2-(Dimethyloctylsilylcholin)ethyl-β-D-PEG-acetylglucosaminether (SIL54) • 2. The different Siosomes® using each of the above mentioned organosilicon compounds have been prepared according to the procedures of this invention. The particle size range of the Siosomes® was 120-300 nm.
# The Platinum-Siosomes®-Complex formulations were supplied in vials containing 10 mg each. Before administration, the contents of each vial was dissolved using 2 ml of sterile distilled water.
# Each rat was administered with 1.5 mg investigative formulation, therefore each rat was administered 300 µl.
# At the start of the study, all animals in all treatment groups received 1.5 mg of investigative drug. All drugs given via intravenous route were treated in an ultrasonic bath for five minutes at room temperature.
# Tissue fractionation was performed by differential centrifugation yielding 5 fractions: • a. Mitochondrial fraction • b. Cytosol • c. Lysosomes • d. Microsomal fraction • e. Membrane fraction
# Animals have been sacrificed 3 hours after the administration of the Siosomes® formulations. The livers have been removed from all animals. The liver homogenate has been prepared from the liver of each treatment group and used for the fractionation of the liver cells.
# Each of the animals in the treatment control group for the determination of total platinum in the liver homogenate have been administered the Drug-Siosomes® formulations in the same way/procedures as the treatment groups.
# Total platinum concentrations have been determined in each fraction for the treated and untreated animal groups. • Average animal weight = 211.64 ± 21.23 g • Average liver weight = 10.40 ± 1.27 g • Average concentration of total platinum in the liver homogenate of the treatment groups (control) • Group 1: Sugar Organosilicon Compound = 2.34 ± 0.82 µg/g • Group 2: Cationic Sugar Organosilicon Compound = 4.40 ± 1.30 µg/g • Group 3: Anionic Sugar Organosilicon Compound = 2.20 ± 0.90 µg/g • Group 4: Zwitterionic Sugar Organosilicon Compound = 3.10 ± 0.70 µg/g • Group 5: PEGylated Organosilicon Compound = 2.90 ± 1.20 µg/g
# [4] = IPSS E011: pharmacokinetics and bioaccumulation of platinum complexes, total platinum in blood and organs by AAS; assay type: in vivo; details: rats, 1.0 mg intravenous, repeated dose over 7 consecutive days
# From the text: IPSS E011: A Clinical Study in Rats on the Pharmacokinetics and Bioaccumulation of Platinum Complexes following the Repeated Dose over 7 Consecutive Days of Formulations (PT-11, PT-12 and PT-13), with 7 Days Non-Treatment Period
# The following tables and figure 12 illustrate a summary of the generated results.
# [5] = Example 18: doxorubicin-siosomes prepared from the single organosilicon compound
# [6] = Example 19: doxorubicin-siosomes from organosilicon compounds and combinations
Compound,Particle size range of the Doxorubicin-siosomes (nm) [1],"Encapsulation efficiency (%) [2, 5]",further results
"CCCCCCCCCCCC[Si](C)(C)O[C@H]1O[C@H](CO)[C@@H](O)[C@H](O)[C@H]1O [Sil 9.1, Dodecyldimethylsilyl-α-D-glucopyranosid]",150-200 nm,60-65%,–
"2-(N,N,N,trimethylammonia nonanyllsilyl)ethyl-beta-D-glucopyranosid sulfate [SIL 66]",150-220 nm,55-70%,Average concentration of total platinum in the liver homogenate [3]: 3.10 ± 0.70 µg/g
"C[Si](C)(CCCCCCCCC(=O)O)CCO[C@@H]1O[C@H](CO)[C@@H](O)[C@H](O)[C@H]1O [SIL 58, 2-(Dimethylnonanoic acid silyl)ethyl-beta-D-glucopyranosid]",150-270 nm,70-80%,–
"CCCCCCCC[Si](C)(C)CCO[C@@H]1O[C@H](CO)[C@H](O)[C@H](O)[C@H]1O [SIL 22, 2-(Dimethyloctylsilyl)ethyl-β-D-galactopyranosid]",–,–,"Particle size (nm) [1]: 250-300 nm; Encapsulation efficiency (%) [2, 6]: 55-70%"
"N.N.[Cl-].[Cl-].[OH-].[OH-].[Pt+4] [Standard Cis-Oxoplatin, Cis-oxoplatin]",–,–,"Concentration of Total Platinum in Blood (ng/ml), Average ([4]; 7 days non-treatment period, average of 6 rats): 1521,92 ng/ml; Concentration of Total Platinum in Blood (ng/ml) ([4]; 7 days non-treatment period, individual rats): 1814,30 ng/ml and 1131,40 ng/ml and 1522,90 ng/ml and 1244,30 ng/ml and 1864,30 ng/ml and 1554,30 ng/ml; Concentration of Total Platinum in Kidney (µg/g), Average ([4]; average of 6 rats): 14,92 µg/g; Concentration of Total Platinum in Lung (µg/g), Average ([4]; average of 6 rats): 0,77 µg/g; Concentration of Total Platinum in Spleen (µg/g), Average ([4]; average of 6 rats): 2,39 µg/g; Concentration of Total Platinum in Stomach (µg/g), Average ([4]; average of 6 rats): 0,41 µg/g; Concentration of Total Platinum in Kidney (µg/g) ([4]; individual rats): 21,22 µg/g and 13,92 µg/g and 15,88 µg/g and 11,62 µg/g and 11,76 µg/g and 15,12 µg/g; Concentration of Total Platinum in Lung (µg/g) ([4]; individual rats): 0,80 µg/g and 0,62 µg/g and 1,09 µg/g and 0,52 µg/g and 0,71 µg/g and 0,86 µg/g; Concentration of Total Platinum in Stomach (µg/g) ([4]; individual rats): 0,51 µg/g and 0,47 µg/g and 0,38 µg/g and 0,35 µg/g (2×) and 0,37 µg/g; Concentration of Total Platinum in Spleen (µg/g) ([4]; individual rats, listed as Standard Cis-Oxoplatinum): 1,99 µg/g and 2,28 µg/g and 2,35 µg/g and 2,10 µg/g and 3,81 µg/g and 1,80 µg/g"
"CCCCCCCCCC[Si](C)(C)O[C@H]1O[C@H](CO)[C@H](O)[C@H](O)[C@H]1O [Sil 8.1, Decyldimethylsilyl-α-D-galactopyranosid]",100-220 nm,65-70%,–
"CCCCCCCCCC[Si](C)(C)CCO[C@@H]1O[C@H](C(=O)O)[C@@H](O)[C@H](O)[C@H]1O [SIL 57, 2-(Dimethyldecylsilyl)ethyl-beta-D-glucopyranosidcarboxylate]",180-270 nm,75-80%,–
2-(Dimethyloctylsilylcholin)ethyl-beta-D-PEG-acetylglucosaminether [SIL 54],200-250 nm,80-85%,–
2-(Dimethylcholesterylhemisuccinatesilyl)ethyl-beta-D-glucopyranosid sulfate [SIL 59],180-220 nm,60-70%,–
C[Si](C)(CCCCCCCCCC(=O)O)CCOC1O[C@H](CO)[C@H](O)[C@H](O)[C@H]1N (stereo partly drawn) [SIL 68],180-220 nm,70-80%,–
"CCCCCCCCCCCCCCCCCC[Si](CCCCCCCCCCCCCCCCCC)(O[C@@H]1O[C@H](COC(C)=O)[C@H](OC(C)=O)[C@H](OC(C)=O)[C@H]1OC(C)=O)O[C@@H]1O[C@H](COC(C)=O)[C@H](OC(C)=O)[C@H](OC(C)=O)[C@H]1OC(C)=O [SIL 15, 1-O-Dioctadecylsilyl-di(2,3,4,6-O-tetraacetyl-β-D-galactopyranosid)]",180-250 nm,70-78%,–
"CCCCCCCCCC(=O)O[Si](C)(C)OC(=O)CCCCCCCCC [SIL 21.1, Di(decanoyloxy)dimethylsilan]",210-240 nm,60-75%,–
"2-(N,N,N,trimethylammonia nonyllsilyl)ethyl-beta-D-glucopyranosid [SIL 67]",200-280 nm,60-70%,–
"CCCCCCCCCC[Si](C)(C)CCO[C@@H]1O[C@H](COS(=O)(=O)O)[C@@H](O)[C@H](O)[C@H]1O [SIL 56, 2-(Dimethyldecylsilyl)ethyl-beta-D-glucopyranosidsulfate]",200-220 nm,60-70%,Average concentration of total platinum in the liver homogenate [3]: 2.20 ± 0.90 µg/g
"CCCCCCCCCCCCCCCCCC[Si](CCCCCCCCCCCCCCCCCC)(O[C@@H]1O[C@H](COC(C)=O)[C@@H](OC(C)=O)[C@H](OC(C)=O)[C@H]1OC(C)=O)O[C@@H]1O[C@H](COC(C)=O)[C@@H](OC(C)=O)[C@H](OC(C)=O)[C@H]1OC(C)=O [SIL 14, 1-O-Dioctadecylsilyl-di(2,3,4,6-O-tetraacetyl-β-D-glucopyranosid)]",210-260 nm,75-80%,–
"CCCCCCCCCCCC[Si](CCCCCCCCCCCC)(CCCCCCCCCCCC)O[C@@H]1O[C@H](COC(C)=O)[C@@H](OC(C)=O)[C@H](OC(C)=O)[C@H]1OC(C)=O [SIL 18, Tridodecylsilyl-(2,3,4,6-O-tetraacetyl-β-D-glucopyranosid)]",160-250 nm,55-60%,"Particle size (nm) [1]: 220-350 nm; Encapsulation efficiency (%) [2, 6]: 60-80%"
2-(Dimethyloctadecylsilyl)ethyl-beta-N-acetylmuramic acid [SIL 60],200-250 nm,60-70%,–
2-(Dimethyl nonaoic acid silyl)ethyl-beta-D-PEG-acetylglucosaminether [SIL 53],180-250 nm,80-85%,–
